The values that follow come from patent US11203613B2, “Peptidomimetic proteasome inhibitors” (CORNELL UNIVERSITY, priority 2017, dated 2021).

In assay [1] the target is Human Constitutive (Hu C-20S) β5 Active Subunit (Homo sapiens, UniProt P28074). Nature of the assay: IC50 determination, human constitutive 20S proteasome β5c (suc-LLVY-AMC hydrolysis). The format is biochemical. The following applies: Table 2; several values in a cell are repeat determinations; read-out: Hu c-20S IC50.
Another assay has as its target Mtb20SOG (Mycobacterium tuberculosis, UniProt P9WHT9). The experiment in a line: biochemical.
The mark [2] stands for this setting: Table 2, several values in a cell are repeat determinations.

Where “and” joins values, the source holds several entries; their conditions need not be identical. Identical values can stand only once. Like-named read-outs stand apart in the source and are kept apart here.

Sequence of Mtb20SOG (P9WHT9 58-291): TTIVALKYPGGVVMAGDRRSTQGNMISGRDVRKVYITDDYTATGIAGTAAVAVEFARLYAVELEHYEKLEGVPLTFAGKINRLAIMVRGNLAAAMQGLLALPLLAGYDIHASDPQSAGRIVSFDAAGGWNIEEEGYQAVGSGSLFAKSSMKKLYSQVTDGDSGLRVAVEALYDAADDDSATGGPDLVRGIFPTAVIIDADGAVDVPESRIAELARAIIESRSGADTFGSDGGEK

As for `CC(NC(=O)C(CC(=O)N1CCCCC1C)NC(=O)OCc1ccccc1)c1nc2c(F)cccc2[nH]1` (centres unmarked) [CF-503462], the results for the IC50 (in assay [1]; against Mtb20SOG) were 14.8 µM and 0.12 µM, respectively.
Regarding `CC(C)COC(=O)NC(CC(=O)N1CCCCC1C)C(=O)NC(C)c1nc2c(F)cccc2[nH]1` (centres unmarked) [CF-503463], the concentration for half-maximal inhibition (IC50) in assay [1] is 2.5 µM; against Mtb20SOG, 1.14 µM.
For `CC[C@H]1CCCCN1C(=O)C[C@H](NC(=O)C1CC(C)(C)C1)C(=O)N[C@@H](C)c1nc2c(F)cccc2[nH]1` [CF-503464], the IC50 in assay [1] is 1.26 µM; against Mtb20SOG, 0.01 µM and 0.019 µM.
Turning to `CC(NC(=O)C(CC(=O)N1CCCCC1C)NC(=O)C1CC(C)(C)C1)c1nc(-c2ccc(F)cc2F)c[nH]1` (centres unmarked) [CF-503474], the IC50 in assay [1] stood at 5.65 µM; against Mtb20SOG, 0.014 µM.
In the case of `CC(NC(=O)C(CC(=O)N1CCCCC1C)NC(=O)C1CC1C(C)C)c1nc(-c2ccc(F)cc2F)c[nH]1` (centres unmarked) [CF-503475], the IC50 was 4.77 µM in assay [1] and 0.034 µM against Mtb20SOG.
As to `CC(C)c1noc(N[C@@H](CC(=O)N2CCCC[C@@H]2C)C(=O)N[C@@H](C)c2ncc(-c3ccc(F)cc3F)[nH]2)n1` [CF-503477], the results for the 50% inhibitory concentration (IC50) (in assay [1]; on Mtb20SOG (setting [2])) were 2.29 µM and 2.05 µM, respectively.
Regarding `Cc1cc(C(=O)N[C@@H](CC(=O)N2CCCC[C@@H]2C)C(=O)NC(C)c2nc3ccccc3[nH]2)no1` (some centres unmarked) [drawing 395], the IC50 in assay [1] is 71.6 µM; against Mtb20SOG (setting [2]), 0.549 µM and 0.331 µM.
